Experimental data from patent publication US10106501B2, “Nuclear receptor modulators” (AbbVie Inc., priority 2015, dated 2018).

Target: T1, chimeric human RORγ-Gal4 receptor (Homo sapiens, UniProt P51449)
T1 sequence (P51449 269-508 limits assumed): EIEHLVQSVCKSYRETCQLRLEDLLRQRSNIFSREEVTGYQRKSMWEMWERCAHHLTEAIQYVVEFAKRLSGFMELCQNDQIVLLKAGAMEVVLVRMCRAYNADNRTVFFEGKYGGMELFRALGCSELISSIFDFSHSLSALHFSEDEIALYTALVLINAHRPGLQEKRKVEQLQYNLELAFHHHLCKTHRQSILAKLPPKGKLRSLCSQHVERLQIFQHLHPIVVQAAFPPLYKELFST
Test: transient transactivation assay (RORγ-Gal4 luciferase reporter)
Type: cell-based
Conditions: Cos-7 cells transfected with RORγ-Gal4 and 5Gal4 pGL3 TK Luc reporter; overnight incubation; T0901317 at 10^-5 M as reference; read-out: IC50

| IC50 | Structure (SMILES) |
| --- | --- |
| < 100 nM | Cc1cc(C(F)(F)F)cc2c1nc(Cc1c(Cl)ccc(C(=O)N3CCC(C(C)(C)CO)CC3)c1Cl)n2C [BJ-10] |
| 100 to 500 nM | Cc1cc(C#N)cc2c1nc(Cc1c(Cl)ccc(C(=O)N3CCC(C(C)(C)O)CC3)c1Cl)n2C [BN-7] |
| 100 to 500 nM | Cc1ccc(C(=O)N2CCOCC2)c(C)c1C(=O)c1cc2c(C)cc(C(F)(F)F)cc2n1C [Example G1, (2,6-dimethyl-3-(morpholine-4-carbonyl)phenyl)(1,4-dimethyl-6-(trifluoromethyl)-1H-indol-2-yl)methanone] |
| < 100 nM | Cc1cc(OC(F)F)cc2c1cc(Cc1c(Cl)ccc(C(=O)N3CCC(C(=O)O)C(C)C3)c1Cl)n2C (stereo not shown) [FF-1] |
| 100 to 500 nM | Cc1cc(C(F)(F)F)cc2c1nc(Cc1c(Cl)ccc(C(=O)N3CCN(C4COC4)CC3)c1Cl)n2C [BJ-38] |
| < 100 nM | Cn1c(Cc2c(Cl)ccc(C(=O)N3CCC(C(=O)O)CC3)c2Cl)cc2c(F)cc(C3CC3)cc21 [Example FN, 1-(2,4-dichloro-3-((6-cyclopropyl-4-fluoro-1-methyl-1H-indol-2-yl)methyl)benzoyl)piperidine-4-carboxylic acid] |
| < 100 nM | Cc1cc(C(F)(F)F)nc2c1cc(Cc1c(Cl)ccc(C(=O)N3CCOCC3)c1Cl)n2C [CM, (2,4-dichloro-3-((1,4-dimethyl-6-(trifluoromethyl)-1H-pyrrolo[2,3-b]pyridin-2-yl)methyl)phenyl)(morpholino)methanone] |
| < 100 nM | CC(=O)Nc1cc(C)c2cc(Cc3c(Cl)ccc(C(=O)N4CCOCC4)c3Cl)n(C)c2c1 [Example FK, N-(2-(2,6-dichloro-3-(morpholine-4-carbonyl)benzyl)-1,4-dimethyl-1H-indol-6-yl)acetamide] |
| 100 to 500 nM | Cc1cc(C(F)(F)F)cn2c(C)c(Cc3c(Cl)ccc(C(=O)N4CCC(C(C)O)CC4)c3Cl)nc12 (stereo not shown) [CT-11] |
| < 100 nM | Cc1cc(C#N)cc2c1cc(Cc1c(Cl)ncc(C(=O)N3CCC4(CCOC4)CC3)c1Cl)n2C [Example FB, 2-((2,4-dichloro-5-(2-oxa-8-azaspiro[4.5]decane-8-carbonyl)pyridin-3-yl)methyl)-1,4-dimethyl-1H-indole-6-carbonitrile] |
| 100 to 500 nM | Cc1cc(C(F)(F)F)cc2c1nc(Cc1c(Cl)ccc(CN3CCCC(C)(O)C3)c1Cl)n2C (stereo not shown) [BW-17] |
| 100 to 500 nM | Cc1cc(C#N)cc2c1nc(Cc1c(Cl)ccc(C(=O)N3CCC4(CCOC4)CC3)c1Cl)n2C [BN-8] |
| < 100 nM | Cc1cc(C(F)(F)F)cc2c1cc(Cc1c(Cl)ccc(C(=O)N3CCC(CC(=O)O)CC3)c1Cl)n2C [Example B-7] |
| < 100 nM | O=C(O)CC1CCN(C(=O)c2ccc(Cl)c(Cn3ccc4cc(C(F)(F)F)cc(F)c43)c2Cl)CC1 [EP, 2-(1-(2,4-dichloro-3-((7-fluoro-5-(trifluoromethyl)-1H-indol-1-yl)methyl)benzoyl)piperidin-4-yl)acetic acid] |
| 100 to 500 nM | COCC1CCN(Cc2ccc(Cl)c(Cc3nc4c(C)cc(C(F)(F)F)cc4n3C)c2Cl)CC1 [BW-3] |
| < 100 nM | Cc1cn(C(=O)c2c(Cl)ccc(C(=O)N3CCC(C(=O)O)CC3)c2Cl)c2c(C)cc(C(F)(F)F)cc12 [DJ1-1] |
| 1000 to 10000 nM | Cc1cc(C(F)(F)F)cc2c1cc(C(=O)c1c(Cl)ccc(CO)c1Cl)n2C [Example AR, (2,6-dichloro-3-(hydroxymethyl)phenyl)(1,4-dimethyl-6-(trifluoromethyl)-1H-indol-2-yl)methanone] |
| < 100 nM | Cc1cc(C(F)(F)F)cc2c1cc(Cc1c(Cl)ccc(C(=O)N3CCC(OCC(=O)O)CC3)c1Cl)n2C [Example B-2] |
| 100 to 500 nM | Cc1cc(C#N)cc2c1nc(Cc1c(Cl)ccc(C(=O)N3CCC(C(C)(C)CO)CC3)c1Cl)n2C [BN-6] |

| IC50 | Structure (SMILES) |
| --- | --- |
| 100 to 500 nM | Cc1cc(C#N)cc2c1nc(Cc1c(Cl)ccc(C(=O)N3CCC(C4COC4)CC3)c1Cl)n2C [BN-12] |
| < 100 nM | CCn1c(Cc2c(Cl)ccc(C(=O)N3CCOCC3)c2Cl)cc2c(C)cc(C(F)(F)F)cc21 [Example D-1] |
| < 100 nM | Cc1cc(C#N)cc2c1cc(Cc1c(Cl)cnc(C(=O)N3CCC(C4COC4)CC3)c1Cl)n2C [BF-1] |
| 500 to 1000 nM | Cc1cc(C#N)cc2c1nc(Cc1c(Cl)ccc(C(=O)N3CCC(CC(C)(C)O)CC3)c1Cl)n2C [BN-16] |
| < 100 nM | Cc1cc(OC(F)F)cc2c1cc(Cc1c(Cl)ccc(C(=O)N3CCC(CC(=O)O)CC3)c1Cl)n2C [Example FF, 2-(1-(2,4-dichloro-3-((6-(difluoromethoxy)-1,4-dimethyl-1H-indol-2-yl)methyl)benzoyl)piperidin-4-yl)acetic acid] |
| 100 to 500 nM | Cn1c(Cc2c(Cl)ccc(C(=O)N3CCOCC3)c2Cl)cc2ccc(C#N)cc21 [Example AC, 2-(2,6-dichloro-3-(morpholine-4-carbonyl)benzyl)-1-methyl-1H-indole-6-carbonitrile] |
| 100 to 500 nM | Cc1cc(C(F)(F)F)cc2c1nc(Cc1c(Cl)ccc(CN3CCC(C(C)O)CC3)c1Cl)n2C (stereo not shown) [BW-13] |
| < 100 nM | Cc1cc(C(F)(F)F)cc2c1c(Cc1c(Cl)cnc(C(=O)N3CCC(CC(=O)O)CC3)c1Cl)cn2C [DW, 2-[1-[3,5-dichloro-4-[[1,4-dimethyl-6-(trifluoromethyl)-1H-indol-3-yl]methyl]pyridine-2-carbonyl]-4-piperidyl]acetic acid] |
| < 100 nM | Cc1cc(C(F)(F)F)cc2c1cc(C(=O)c1c(Cl)ncc(C(=O)N3CCC(CC(=O)O)CC3)c1Cl)n2C [Example FG, 2-(1-(4,6-dichloro-5-(1,4-dimethyl-6-(trifluoromethyl)-1H-indole-2-carbonyl)nicotinoyl)piperidin-4-yl)acetic acid] |
| 100 to 500 nM | Cc1cc(C(F)(F)F)cc2c1cc(Cc1c(Cl)ncc(C(=O)N3CCC(O)(CCO)CC3)c1Cl)n2C [BH-2] |
| < 100 nM | Cc1cc(C(F)(F)F)cc2c1cc(Cc1c(Cl)ccc(C(=O)N3CC(CC(=O)O)C3)c1Cl)n2C [Example B-9] |
| 500 to 1000 nM | CCn1c(Cc2c(Cl)ccc(C(=O)N3CCOCC3)c2Cl)nc2c(C)cc(C#N)cc21 [CG, 2-(2,6-dichloro-3-(morpholine-4-carbonyl)benzyl)-1-ethyl-4-methyl-1H-benzo[d]imidazole-6-carbonitrile] |
| < 100 nM | Cc1cc(C(F)(F)F)nc2c1cc(Cc1c(Cl)ncc(C(=O)N3CCC(S(C)(=O)=O)CC3)c1Cl)n2C [Example GG, (4,6-dichloro-5-((1,4-dimethyl-6-(trifluoromethyl)-1H-pyrrolo[2,3-b]pyridin-2-yl)methyl)pyridin-3-yl)(4-(methylsulfonyl)piperidin-1-yl)methanone] |
| < 100 nM | Cc1c(C#N)ccc2c1cc(Cc1c(Cl)ccc(C(=O)N3CCOCC3)c1Cl)n2C [EX, 2-(2,6-dichloro-3-(morpholine-4-carbonyl)benzyl)-1,4-dimethyl-1H-indole-5-carbonitrile] |
| 100 to 500 nM | Cc1cc(C(F)(F)F)cc2c1nc(Cc1c(Cl)ccc(CN3CCOCC3)c1Cl)n2C [BW-10] |
| 500 to 1000 nM | Cn1c(Cc2c(Cl)ccc(C(=O)N3CCOCC3)c2Cl)nc2c(C(F)(F)F)cc(C#N)cc21 [CF, 2-(2,6-dichloro-3-(morpholine-4-carbonyl)benzyl)-1-methyl-4-(trifluoromethyl)-1H-benzo[d]imidazole-6-carbonitrile] |
| 100 to 500 nM | Cc1cc(C(F)(F)F)cc2c1nc(Cc1c(Cl)ccc(C(=O)N3CCN(C(C)C)CC3)c1Cl)n2C [BJ-40] |
| 100 to 500 nM | Cc1cc(C(F)(F)F)cc2c1nc(Cc1c(Cl)ccc(CN3CCC(C4COC4)CC3)c1Cl)n2C [BW-1] |
